The values below come from US10253251B2, “Nanomatrix separation of chromophores and uses thereof in luminescent devices” (RAMOT AT TEL-AVIV UNIVERSITY LTD., priority 2010, dated 2019).

“And” between values parts separate entries of the source, which are not always exact repeats. Equal entries are not always repeated.

Data set [1] deals with deglycosylated form of BSM (dBSM). The experiment in a line: Loading capacity of deglycosylated BSM (dBSM) for hydrophobic ligands. It is filed as binding, bovine. The note with it: for dBSM NBL (number of bound ligands per dBSM monomer) / dBSM UP (%): deglycosylated BSM. The method, then: To evaluate this assumption, a deglycosylated form of BSM (dBSM) was prepared and repeated binding experiments with this modified protein were carried out. Complexes of C60 with dBSM were prepared as described above for the complexation with BSM.
dBSM was prepared by base-catalyzed β-elimination of periodate-oxidized glycans, using method reported by Kim and coworkers.
A deglycosylated form of BSM (dBSM) was prepared and the binding experiments with this protein were repeated. Complexes of Ant, Bap and Cor ligands with dBSM were prepared as described above for the complexation with BSM. dBSM was prepared as described above in the context of fullerene, nanotubes, and inorganic nanostructures.
A solution of BSM protein (100 mg) in NaOH (0.1 M, 10 mL) was stirred at room temperature for 30 min. The resulting solution was cooled to 4° C. NaIO4 (100 mM) in acetate buffer (100 mM, pH 4.5) was added and the mixture was stirred overnight at 4° C. After that time, glycine (200 mg) was added and the reaction mixture was allowed to warm to room temperature and was stirred for 30 min. NaOH (1.0 M, 1 mL) was added and the solution was stirred for an additional 30 min. The resulting solution was dialyzed against deionized water overnight and was then centrifuged and lyophilized. The degree of deglycosylation was measured by using a standard periodic acid/Schiff assay (Sigma-Aldrich).
(§1) To a solution of BSM or deglycosylated BSM protein (4 mg mL^−1, 1.5 mL) in sodium phosphate buffer (2 mM, pH 7.2) a solid ligand (1 mg) was added at room temperature and the mixture was stirred at 500-700 rpm for 48 hrs. After that time, the reaction mixture was filtered through a 0.45 μm filter and the solution was loaded on a Sephadex G-25 gel-permeation column (Pharmacia Biotech). Protein complexes were eluted with a sodium phosphate buffer (20 mM, pH 7.2) and elution was monitored by UV-vis spectroscopy.
(§2) The amount of BSM or deglycosylated BSM protein in complexes was determined by using a standard periodic acid/Schiff assay (Sigma-Aldrich). The amount of a ligand in each complex was determined by UV-vis spectroscopy after protein hydrolysis and quantitative extraction of the ligand by chloroform. To a sample of complex in a sodium phosphate buffer (1 mL, 20 mM, pH 7.2), chloroform (1 mL) and hydrochloric acid (1 mL, 12 M) were added at room temperature. The reaction mixture was sealed in a glass pressure vessel and heated at 80° C. with vigorous stirring for 3 hrs. After cooling to a room temperature, the organic phase containing extracted ligand was analyzed by UV-vis spectroscopy.

The subject of data set [2] is Bovine Submaxillary Mucin (BSM). The experiment in a line: Loading capacity of BSM glycoprotein for hydrophobic ligands (ligand uptake). It is filed as binding. The note with it: for BSM NBL (average number of bound ligands per BSM monomer): LUP multiplied by BSM monomer-to-ligand molecular weight ratio; for BSM LUP (ligand uptake percentage, ligand-to-BSM weight ratio): extracted ligand (hydrolysis-extraction, UV-vis) divided by BSM protein (PAS assay).
Source text: In order to determine the loading capacity of BSM glycoprotein for the examined ligands, elemental analysis measurements were preformed. The carbon content of each complex (in the case of C60 and MWNT containing complexes) was compared to the carbon content found in the native BSM. This was used to determine the amount of ligand in the complex and by that, the mucin-ligand weight ratio (ligand uptake percentage—LUP, Table 1).
In this procedure, the amount of the BSM protein in the mucin complex was analyzed by a periodic acid/Schiff (PAS) assay.
In more detail, in order to determine the amount of C60, a hydrolysis-extraction process was used which included heating of the complex in a heterogeneous mixture of hydrochloric acid and chloroform at 80° C., in a sealed vessel, and then the amount of a chloroform-extracted ligand was determined by UV-vis spectroscopy.
Additional calculation determined the average number of bound ligand (NBL) per BSM monomer by multiplication of the LUP value by the BSM monomer-to-ligand molecular weight ratio (Eq. 2).
In order to ascertain the capacity of BSM glycoprotein for various ligands, the amounts of Ant, Bap and Cor ligands in corresponding BSM complexes were determined. The amount of the BSM protein in each BSM complex was analyzed by a periodic acid/Schiff (PAS) assay.
In order to determine the amount of ligand in each complex, the above-described hydrolysis-extraction process was employed and determined the amount of chloroform-extracted ligand by UV-vis spectroscopy.
The LUP values were calculated by dividing the amount of the extracted ligand by the amount of the BSM protein present in the complex. […] The average number of bound ligands (NBL) per BSM monomer was also calculated by multiplication of the LUP value by the BSM monomer-to-ligand molecular weight ratio, as discussed above.
as §1, §2

Data set [3] is described as follows: Binding/dissolution of hydrophobic ligands by oligosaccharide: starch. The note with it: dissolved ligand divided by amount of oligosaccharide. The method, then:
(§3) The subsequent series of complementary experiments was designed to examine capabilities of different size oligosaccharides to bind selected hydrophobic ligands.
(§4) Representative oligosaccharides, including β-cyclodextrin, starch, arabic acid and lactose, were incubated with C60, according to the described above protocol for the BSM complexes preparation. […] Therefore, it is believed that interactions between the saccharide residues and the polypeptide backbone in a sugar-substituted polypeptide dictate certain arrangements of the saccharide moieties in space, and these arrangements play a role in the complexation of various hydrophobic materials.
(§5) The subsequent series of complementary experiments was designed to examine capabilities of different size oligosaccharides to bind selected hydrophobic ligands. Representative oligosaccharides, including β-cyclodextrin, starch, arabic acid and lactose, were incubated with Ant, Bap and Cor ligands, according to the described above protocol for the BSM complexes preparation. The LUP values were calculated by dividing the amount of the dissolved ligand by the amount of the oligosaccharide present in the complex (if formed). No clear preference was for binding of particular ligands to certain oligosaccharides. In comparison to BSM, the dissolution capability of arabic acid was drastically lower for all tested ligands. It was practically negligible in the cases of lactose, β-cyclodextrin and starch (Table 1).

A short description of data set [4]: Binding/dissolution of hydrophobic ligands by oligosaccharide: β-cyclodextrin. The note with it: dissolved ligand divided by amount of oligosaccharide. The procedure:
as §3, §4
as §5, with “It was practically negligible in the cases of lactose, β-cyclodextrin and starch (Table 1).” left out

The nature of data set [5]: Incubation of representative oligosaccharides with C60, detection in solution by UV-vis or SEC-HPLC. It is filed as physicochemical. The following applies: β-cyclodextrin, starch, arabic acid and lactose. The method, then:
as §3, §4
On the technique in general: Size exclusion chromatography separates by hydrodynamic size, large species first.

The nature of data set [6]: Binding/dissolution of hydrophobic ligands by oligosaccharide: arabic acid. The following applies: dissolved ligand divided by amount of oligosaccharide. The procedure:
as §3, §4, §5

As for `c12c3c4c5c1c1c6c7c2c2c8c3c3c9c4c4c%10c5c5c1c1c6c6c%11c7c2c2c7c8c3c3c8c9c4c4c9c%10c5c5c1c1c6c6c%11c2c2c7c3c3c8c4c4c9c5c1c1c6c2c3c41` [Ligand C60, C60], in data set [1], the “uptake capacity of dBSM, ligands per monomer” value is 2 ligand molecules per monomeric unit; the “dBSM NBL (number of bound ligands per dBSM monomer)” value turned out to be 1.9 ± 0.1; the “dBSM UP (%)” value is 1.4% and 1.41 ± 0.28%. Moreover, in data set [2], the “average number of bound ligand (NBL) per BSM monomer” value is listed as 40 ligands per monomeric unit of BSM; the “BSM NBL (average number of bound ligands per BSM monomer)” value is on record as 36 ± 6; the “BSM LUP (ligand uptake percentage, ligand-to-BSM weight ratio)” value was 15.1% and 15.1 ± 2.4%. Also, the “Starch LUP” value in data set [3] amounted to 0.35 ± 0.07%. The “β-Cyclodextrin LUP” value in data set [4] was 0.12 ± 0.02%. Further, in data set [5], the “C60 detected in the solution after incubation with oligosaccharides” value is given as “no C60 was detected”.
As for `c1ccc2c(c1)cc1ccc3cccc4ccc2c1c34` [Bap, benzo[a]pyrene], in data set [1], the “dBSM NBL (number of bound ligands per dBSM monomer)” value is recorded as 1.2 ± 0.2 and the “dBSM UP (%)” value is 0.23 ± 0.05%. Further, in data set [6], the “Arabic Acid LUP” value turned out to be 0.09 ± 0.02%. In data set [2], the “BSM NBL (average number of bound ligands per BSM monomer)” value was 36 ± 8 and the “BSM LUP (ligand uptake percentage, ligand-to-BSM weight ratio)” value came out at 5.4 ± 1.1%. Moreover, in data set [3], the “Starch LUP” value is on record as 0.11 ± 0.02%.
Regarding `c1cc2ccc3ccc4ccc5ccc6ccc1c1c2c3c4c5c61` [Cor, coronene], in data set [1], the “dBSM NBL (number of bound ligands per dBSM monomer)” value is 2.1 ± 0.2 and the “dBSM UP (%)” value came to 0.61 ± 0.12%. Moreover, in data set [6], the “Arabic Acid LUP” value is listed as 0.18 ± 0.04%. Moreover, in data set [2], the “BSM NBL (average number of bound ligands per BSM monomer)” value is reported as 44 ± 9 and the “BSM LUP (ligand uptake percentage, ligand-to-BSM weight ratio)” value was determined as 7.8 ± 1.5%. Further, the “BSM LUP (ligand uptake percentage, ligand-to-BSM weight ratio)” value in data set [2] (listed as Coronene) was found to be 7.7%. Besides, in data set [3], the “Starch LUP” value was 0.18 ± 0.04%.
With `c1ccc2cc3ccccc3cc2c1` [Ant, anthracene], in data set [1], the “dBSM NBL (number of bound ligands per dBSM monomer)” value is 2.2 ± 0.3 and the “dBSM UP (%)” value was determined as 0.28 ± 0.06%. Moreover, the “Arabic Acid LUP” value in data set [6] was determined as 0.56 ± 0.11%. Also, in data set [2], the “BSM NBL (average number of bound ligands per BSM monomer)” value is recorded as 43 ± 9; the “BSM LUP (ligand uptake percentage, ligand-to-BSM weight ratio)” value is 4.5% and 4.5 ± 0.9%.
